Measured values: US12064426B2, “Selective inhibitors of ROCK1 and ROCK2 protein kinases and uses thereof” (GENOSCO Inc., priority 2021, dated 2024)

Tests used:
[1] = target: T1, Recombinant ROCK2 (amino acids 5-554) (Homo sapiens, UniProt O75116); assay: ROCK inhibition assay, LANCE Ultra TR-FRET kinase assay (ROCK2); format: biochemical; conditions: 4 μM ATP, 50 nM ULight-CREBtide substrate
T1 construct: ROCK2 (amino acids 5-554); by word order, ROCK2 from SignalChem
Protocol: (§1) Kinase IC50 was determined through an in vitro assay based on LANCE Ultra TR-FRET (Time-Resolved Fluorescence Resonance Energy Transfer) homogeneous technologies method (Perkin Elmer). Recombinant ROCK1 (amino acids 1-477) and ROCK2 (amino acids 5-554) proteins were purchased from Carna Biosciences and SignalChem. Compound activities were measured by Envision and IC50s were calculated. The assays were performed in white LUMITRAC™ 200 96 well half-area microplates from Greiner Bio-One. The kinase reaction buffer consisted of 50 mM HEPES pH 7.5, 1 mM EGTA, 10 mM MgCl2, 2 mM DTT and 0.01% Tween-20. Kinases were incubated with 50 nM (ULight-CREBtide) substrate in the presence of 1 (ROCK1) or 4 (ROCK2) μM ATP. The kinase reaction was carried out for 1 hour before addition of a stopping buffer to a final of 10 mM EDTA and 0.6 nM of LANCE Ultra Europium anti-phospho-CREB (Ser133) antibody (PerkinElmer TRF0200) in LANCE detection buffer. All assay incubations were performed at room temperature, and the microplates were sealed with polyester film during that time. The reaction was incubated for 1 hour, and the signal was read in Envision in TR-FRET mode (excitation at 320 nm and emission at 615/665 nm).
(§2) As used herein, a way to describe potency of inhibitory activity (nM) is a value of inhibitory activity at 50% (IC50).

[2] = target: T2, Recombinant ROCK1 (amino acids 1-477) (Homo sapiens, UniProt Q13464); assay: ROCK inhibition assay, LANCE Ultra TR-FRET kinase assay (ROCK1); format: biochemical; conditions: 1 μM ATP, 50 nM ULight-CREBtide substrate
T2 construct: Recombinant ROCK1 (amino acids 1-477); by word order, ROCK1 from Carna Biosciences
Protocol: as §1, §2

T2 sequence (Q13464 1-477): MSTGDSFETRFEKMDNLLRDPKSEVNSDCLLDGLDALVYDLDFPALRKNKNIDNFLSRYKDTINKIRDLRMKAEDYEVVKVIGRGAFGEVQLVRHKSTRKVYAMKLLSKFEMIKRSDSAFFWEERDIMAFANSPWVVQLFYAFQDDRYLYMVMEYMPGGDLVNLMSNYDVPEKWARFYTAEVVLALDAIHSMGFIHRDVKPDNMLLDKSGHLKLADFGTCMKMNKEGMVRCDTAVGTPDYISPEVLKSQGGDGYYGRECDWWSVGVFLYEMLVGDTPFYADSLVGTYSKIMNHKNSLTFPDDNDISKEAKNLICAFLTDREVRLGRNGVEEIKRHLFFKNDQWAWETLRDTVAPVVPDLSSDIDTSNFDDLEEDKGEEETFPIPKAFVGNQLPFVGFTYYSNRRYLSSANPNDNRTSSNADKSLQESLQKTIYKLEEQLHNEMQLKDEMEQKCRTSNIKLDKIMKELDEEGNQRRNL
T1 sequence (O75116 5-554): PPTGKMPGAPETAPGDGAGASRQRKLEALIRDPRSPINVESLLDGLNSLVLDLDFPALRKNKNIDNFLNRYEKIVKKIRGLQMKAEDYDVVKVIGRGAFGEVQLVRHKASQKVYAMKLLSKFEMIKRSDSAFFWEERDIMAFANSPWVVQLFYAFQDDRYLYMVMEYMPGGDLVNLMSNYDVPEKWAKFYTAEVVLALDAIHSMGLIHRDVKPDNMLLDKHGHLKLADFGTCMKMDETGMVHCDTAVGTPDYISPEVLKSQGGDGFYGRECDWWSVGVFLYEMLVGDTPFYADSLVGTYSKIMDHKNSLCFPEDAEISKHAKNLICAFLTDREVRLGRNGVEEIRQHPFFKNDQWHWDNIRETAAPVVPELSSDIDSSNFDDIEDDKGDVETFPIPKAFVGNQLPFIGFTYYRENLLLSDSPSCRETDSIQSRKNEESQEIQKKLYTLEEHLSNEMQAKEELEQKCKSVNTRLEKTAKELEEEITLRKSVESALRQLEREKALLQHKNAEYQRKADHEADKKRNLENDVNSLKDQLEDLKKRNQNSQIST

SMILES | IC50 [1] [nM] | IC50 [2] [nM]
[2H]C([2H])([2H])NC(=O)c1cccc(Cn2cnc3cc(-c4cn[nH]c4C(F)(F)F)ccc3c2=O)c1 [Compound 368] | < 10 | 11 to 100
CO[C@H]1CC[C@H](NC(=O)c2cc(F)cc(Cn3ccc4cc(-c5conc5C)ccc4c3=O)c2)CC1 [Compound 141] | 100 to 500 | > 501
O=C(NC1COC1)c1cccc(Cn2ccc3cc(N4CCOCC4)ccc3c2=O)c1 [Compound 207] | 100 to 500 | 11 to 100
CNC(=O)c1cccc(Cn2ccc3cc(-c4conc4C)ncc3c2=O)c1 [Compound 241] | 10 to 100 | 101 to 500
CNC(=O)c1cncc(Cn2cnc3cc(-c4cn[nH]c4Cl)ccc3c2=O)c1 [Compound 403] | 100 to 500 | > 501
CC(=O)Nc1cccc(Cn2ccc3cc(-c4ccoc4C)ccc3c2=O)c1 [Compound 332, N-(3-((6-(2-methylfuran-3-yl)-1-oxoisoquinolin-2(1H)-yl)methyl)phenyl)acetamide] | 100 to 500 | > 501
Cc1nocc1-c1ccc2c(=O)n(Cc3cccc(C(=O)N[C@H]4C[C@@H](O)C4)c3)ccc2c1 [Compound 72] | 10 to 100 | 101 to 500
NCC(c1cccc(Cl)c1)n1cnc2cc(-c3cn[nH]c3Cl)ccc2c1=O (centres unmarked) [Compound 496] | < 10 | < 10
Cc1nocc1-c1ccc2c(=O)n(Cc3cc(F)cc(C(=O)NCC4CCN(C5COC5)CC4)c3)ccc2c1 [Compound 154] | < 10 | 101 to 500
CNC(=O)c1cccc(Cn2cnc3cc(-c4cn[nH]c4Cl)ccc3c2=O)c1 [Compound 404] | < 10 | < 10
CN1CCC(CNC(=O)c2cc(F)cc(Cn3ccc4cc(-c5c[nH]nc5C(F)F)ccc4c3=O)c2)CC1 [Compound 62] | < 10 | < 10
CNC(=O)c1cccc(Cn2ccc3cc(-c4c[nH]nc4C)ncc3c2=O)c1 [Compound 239] | < 10 | 11 to 100
O=C(NCC1COC1)c1cccc(Cn2ccc3cc(-c4c[nH]nc4C(F)(F)F)ccc3c2=O)c1 [Compound 53] | < 10 | 11 to 100
C[C@H](c1cccc(C(=O)NC2CC2)c1)n1cnc2cc(-c3cn[nH]c3Br)ccc2c1=O [Compound 515] | < 10 | 11 to 100
O=C(N[C@H]1CC[C@@H](O)CC1)c1cc(F)cc(Cn2ccc3cc(N4CCOCC4)ccc3c2=O)c1 [Compound 215] | 100 to 500 | > 501
Nc1cc(-c2ccc3c(=O)n(Cc4cccc(C(=O)Nc5ccon5)c4)ccc3c2)ccn1 [Compound 204] | 100 to 500 | > 501
CNC(=O)c1cc(Cl)cc(Cn2ccc3cc(-c4conc4C)ccc3c2=O)c1 [Compound 319] | 10 to 100 | 101 to 500
CNC(=O)c1cc(F)cc(Cn2cnc3cc(-c4cn[nH]c4C(F)(F)F)ccc3c2=O)c1 [Compound 386] | < 10 | 11 to 100
CN1CCC(NC(=O)c2cccc(Cn3cnc4cc(-c5cn[nH]c5Cl)ccc4c3=O)c2)CC1 [Compound 408] | < 10 | < 10
COc1cccc(Cn2ccc3cc(-c4c[nH]nc4C)ccc3c2=O)c1 [Compound 4] | < 10 | 11 to 100
CC(=O)Nc1cc(Cn2ccc3cc(-c4cnoc4C)ccc3c2=O)ccc1F [Compound 335] | 10 to 100 | 101 to 500
COc1cccc(Cn2cnc3cc(-c4conc4C)ccc3c2=O)c1 [Compound 357] | 10 to 100 | 11 to 100
[2H]C([2H])([2H])NC(=O)c1cccc(Cn2cnc3cc(-c4conc4C)ccc3c2=O)c1 [Compound 412] | < 10 | 11 to 100
C[C@H](c1cccc(C(=O)NCc2ccncc2)c1)n1cnc2cc(-c3cn[nH]c3C(F)(F)F)ccc2c1=O [Compound 447] | < 10 | < 10
Nc1cc(-c2ccc3c(=O)n(Cc4cccc(C(=O)NC5CCCC5)c4)ccc3c2)ccn1 [Compound 198] | 100 to 500 | > 501
O=C(N[C@H]1C[C@@H](O)C1)c1cc(F)cc(Cn2ccc3cc(N4CCOCC4)ccc3c2=O)c1 [Compound 209] | 100 to 500 | > 501
C[C@H](c1cccc(C(=O)NC2COC2)c1)n1cnc2cc(-c3cn[nH]c3N)ccc2c1=O [Compound 520] | < 10 | 11 to 100
Cn1nccc1-c1ccc2c(c1)NCN([C@H](CO)c1cccc(Cl)c1)C2=O [Compound 526] | > 500 | > 501

SMILES | IC50 [1] [nM] | IC50 [2] [nM]
[2H]C([2H])([2H])NC(=O)c1cccc(Cn2ccc3cc(-c4cn[nH]c4Cl)ccc3c2=O)c1 [Compound 291] | < 10 | 11 to 100
CNC(=O)c1cccc(C(C)n2cc(CCO)c3cc(-c4cn[nH]c4Cl)ccc3c2=O)c1 (centres unmarked) [Compound 551] | < 10 | 11 to 100
Nc1cc(-c2ccc3c(=O)n(Cc4cccc(C(=O)Nc5ccc6c(c5)CNCC6)c4)ccc3c2)ccn1 [Compound 187] | < 10 | 11 to 100
Cc1nocc1-c1ccc2c(=O)n(C(CO)c3cccc(Cl)c3)cnc2c1 (centres unmarked) [Compound 488] | 10 to 100 | 101 to 500
COc1cccc(Cn2cnc3cc(-c4ccnc(N)c4)ccc3c2=O)c1 [Compound 364] | 10 to 100 | 11 to 100
Cc1nocc1-c1ccc2c(=O)n(Cc3cc(F)cc(C(=O)NCC4CCN(C)CC4)c3)ccc2c1 [Compound 149] | < 10 | 11 to 100
O=C(NCC1CCN(C2CC2)CC1)c1cccc(Cn2ccc3cc(N4CCOCC4)ccc3c2=O)c1 [Compound 225] | 10 to 100 | 101 to 500
[2H]C([2H])([2H])NC(=O)c1cc(F)cc(Cn2cnc3cc(-c4cn[nH]c4C(F)F)ccc3c2=O)c1 [Compound 402] | < 10 | 11 to 100
O=C(N[C@H]1CC[C@@H](O)CC1)c1cc(F)cc(Cn2ccc3cc(-c4c[nH]nc4Cl)ncc3c2=O)c1 [Compound 262] | < 10 | < 10
COCCNC(=O)c1cccc(Cn2ccc3cc(-c4ccnn4C)ccc3c2=O)c1 [Compound 120] | 100 to 500 | 101 to 500
COc1cccc(Cn2cnc3cc(-c4cn[nH]c4)ccc3c2=O)c1 [Compound 354, 3-(3-methoxybenzyl)-7-(1H-pyrazol-4-yl)quinazolin-4(3H)-one] | 10 to 100 | 11 to 100
C[C@H](c1cccc(C(=O)NCCO)c1)n1cnc2cc(-c3cn[nH]c3C(F)F)ccc2c1=O [Compound 459] | 10 to 100 | 101 to 500
CN1CCC(NC(=O)c2cccc(Cn3ccc4cc(-c5ccnn5C)ccc4c3=O)c2)CC1 [Compound 106] | < 10 | < 10
Nc1cc(-c2ccc3c(=O)n(Cc4cccc(C(=O)NCC5CCOCC5)c4)cnc3c2)ccn1 [Compound 438] | 10 to 100 | 11 to 100
O=C(NCC1COC1)c1cccc(Cn2ccc3cc(-c4c[nH]nc4Cl)ccc3c2=O)c1 [Compound 63] | < 10 | 11 to 100
CNC(=O)c1cccc([C@@H](C)n2cnc3cc(-c4cn[nH]c4C)ccc3c2=O)c1 [Compound 441] | < 10 | 11 to 100
Cc1n[nH]cc1-c1cc2ccn(Cc3cc(F)cc(C(=O)NCC4CCN(C)CC4)c3)c(=O)c2cn1 [Compound 256] | < 10 | < 10
COc1cccc(Cn2cnc3cc(-c4c[nH]nc4C(F)F)ccc3c2=O)c1 [Compound 359] | < 10 | 11 to 100
Cn1nccc1-c1ccc2c(=O)n(Cc3cccc(C(=O)NCC4CC(O)C4)c3)ccc2c1 (centres unmarked) [Compound 112] | 10 to 100 | 101 to 500
Cn1nccc1-c1ccc2c(=O)n(Cc3cccc(C(=O)N[C@H]4CC[C@@H](O)CC4)c3)ccc2c1 [Compound 116] | 10 to 100 | 101 to 500
O=c1c2ccc(-c3ccncc3)cc2ncn1C(CO)c1cccc(Cl)c1 (centres unmarked) [Compound 483, 3-(1-(3-chlorophenyl)-2-hydroxyethyl)-7-(pyridin-4-yl)quinazolin-4(3H)-one] | 10 to 100 | 101 to 500
Cc1nocc1-c1ccc2c(=O)n(Cc3cc(F)cc(C(=O)NCc4ccc(F)nc4)c3)ccc2c1 [Compound 147] | < 10 | 11 to 100
Cc1nocc1-c1ccc2c(=O)n(Cc3cccc(C(=O)NCC4CCN(C)CC4)c3)ccc2c1 [Compound 78] | < 10 | 11 to 100
Cc1nocc1-c1ccc2c(=O)n(Cc3cccc(C(=O)NC4CCNCC4)c3)ccc2c1 [Compound 85] | < 10 | 11 to 100
[2H]C([2H])([2H])NC(=O)c1cc(F)cc(Cn2cnc3cc(-c4conc4C)ccc3c2=O)c1 [Compound 423] | < 10 | 11 to 100
CNC(=O)c1cccc(C(C)n2ccc3cc(-c4ccnn4C)ccc3c2=O)c1 (centres unmarked) [Compound 322] | 10 to 100 | 101 to 500
CNC(=O)c1cccc(Cn2cnc3cc(-c4conc4C)ccc3c2=O)c1 [Compound 411] | < 10 | 11 to 100
